Laboratory results published in ChEMBL document CHEMBL6103556, “Design and evaluation of anaplastic lymphoma kinase degraders using a covalent fumarate handle” (Bioorg Med Chem Lett, 2025).

Tests used:
NCI-H3122 [1] = experiment: Antiproliferative activity against human NCI-H3122 cells transfected with siRNF126 assessed as cell growth inhibition measured after 72 hrs by CellTiter-Glo assay; format: functional
NCI-H3122 [2] = experiment: cells; settings: Homo sapiens, NCI-H3122, 72 h
Description: Antiproliferative activity against human NCI-H3122 cells expressing EML4-ALK fusion assessed as cell growth inhibition incubated for 72 hrs by CellTiter-Glo assay

NCI-H3122 [3] = experiment: Induction of EML4-ALK degradation in human NCI-H3122 cells assessed as reduction in ALK level by measuring fold change at 100 nM measured after 24 hrs by Western blot analysis (reference value: […]); format: cell-based
[4] = target: T1, Proto-oncogene tyrosine-protein kinase ROS (Homo sapiens, UniProt P08922); experiment: Inhibition of ROS (unknown origin) by Eurofins kinase profiler method
[5] = target: Epidermal growth factor receptor (Homo sapiens, UniProt P00533, L858R); experiment: Inhibition of EGFR L858R (unknown origin) by Eurofins kinase profiler method
[6] = target: T1, Proto-oncogene tyrosine-protein kinase ROS; experiment: Inhibition of ROS (unknown origin) at 1 uM by Eurofins kinase profiler method relative to control
[7] = target: Insulin receptor (Homo sapiens) (UniProt P06213); experiment: Inhibition of IR (unknown origin) at 1 uM by Eurofins kinase profiler method relative to control
[8] = target: Insulin-like growth factor 1 receptor (Homo sapiens) (UniProt P08069); experiment: Inhibition of IGF-1R (unknown origin) at 1 uM by Eurofins kinase profiler method relative to control
[9] = system: Epidermal growth factor receptor (Homo sapiens), P00533 [L858R]; experiment: Inhibition of EGFR L858R (unknown origin) at 1 uM by Eurofins kinase profiler method relative to control

T1 sequence (P08922 whole entry): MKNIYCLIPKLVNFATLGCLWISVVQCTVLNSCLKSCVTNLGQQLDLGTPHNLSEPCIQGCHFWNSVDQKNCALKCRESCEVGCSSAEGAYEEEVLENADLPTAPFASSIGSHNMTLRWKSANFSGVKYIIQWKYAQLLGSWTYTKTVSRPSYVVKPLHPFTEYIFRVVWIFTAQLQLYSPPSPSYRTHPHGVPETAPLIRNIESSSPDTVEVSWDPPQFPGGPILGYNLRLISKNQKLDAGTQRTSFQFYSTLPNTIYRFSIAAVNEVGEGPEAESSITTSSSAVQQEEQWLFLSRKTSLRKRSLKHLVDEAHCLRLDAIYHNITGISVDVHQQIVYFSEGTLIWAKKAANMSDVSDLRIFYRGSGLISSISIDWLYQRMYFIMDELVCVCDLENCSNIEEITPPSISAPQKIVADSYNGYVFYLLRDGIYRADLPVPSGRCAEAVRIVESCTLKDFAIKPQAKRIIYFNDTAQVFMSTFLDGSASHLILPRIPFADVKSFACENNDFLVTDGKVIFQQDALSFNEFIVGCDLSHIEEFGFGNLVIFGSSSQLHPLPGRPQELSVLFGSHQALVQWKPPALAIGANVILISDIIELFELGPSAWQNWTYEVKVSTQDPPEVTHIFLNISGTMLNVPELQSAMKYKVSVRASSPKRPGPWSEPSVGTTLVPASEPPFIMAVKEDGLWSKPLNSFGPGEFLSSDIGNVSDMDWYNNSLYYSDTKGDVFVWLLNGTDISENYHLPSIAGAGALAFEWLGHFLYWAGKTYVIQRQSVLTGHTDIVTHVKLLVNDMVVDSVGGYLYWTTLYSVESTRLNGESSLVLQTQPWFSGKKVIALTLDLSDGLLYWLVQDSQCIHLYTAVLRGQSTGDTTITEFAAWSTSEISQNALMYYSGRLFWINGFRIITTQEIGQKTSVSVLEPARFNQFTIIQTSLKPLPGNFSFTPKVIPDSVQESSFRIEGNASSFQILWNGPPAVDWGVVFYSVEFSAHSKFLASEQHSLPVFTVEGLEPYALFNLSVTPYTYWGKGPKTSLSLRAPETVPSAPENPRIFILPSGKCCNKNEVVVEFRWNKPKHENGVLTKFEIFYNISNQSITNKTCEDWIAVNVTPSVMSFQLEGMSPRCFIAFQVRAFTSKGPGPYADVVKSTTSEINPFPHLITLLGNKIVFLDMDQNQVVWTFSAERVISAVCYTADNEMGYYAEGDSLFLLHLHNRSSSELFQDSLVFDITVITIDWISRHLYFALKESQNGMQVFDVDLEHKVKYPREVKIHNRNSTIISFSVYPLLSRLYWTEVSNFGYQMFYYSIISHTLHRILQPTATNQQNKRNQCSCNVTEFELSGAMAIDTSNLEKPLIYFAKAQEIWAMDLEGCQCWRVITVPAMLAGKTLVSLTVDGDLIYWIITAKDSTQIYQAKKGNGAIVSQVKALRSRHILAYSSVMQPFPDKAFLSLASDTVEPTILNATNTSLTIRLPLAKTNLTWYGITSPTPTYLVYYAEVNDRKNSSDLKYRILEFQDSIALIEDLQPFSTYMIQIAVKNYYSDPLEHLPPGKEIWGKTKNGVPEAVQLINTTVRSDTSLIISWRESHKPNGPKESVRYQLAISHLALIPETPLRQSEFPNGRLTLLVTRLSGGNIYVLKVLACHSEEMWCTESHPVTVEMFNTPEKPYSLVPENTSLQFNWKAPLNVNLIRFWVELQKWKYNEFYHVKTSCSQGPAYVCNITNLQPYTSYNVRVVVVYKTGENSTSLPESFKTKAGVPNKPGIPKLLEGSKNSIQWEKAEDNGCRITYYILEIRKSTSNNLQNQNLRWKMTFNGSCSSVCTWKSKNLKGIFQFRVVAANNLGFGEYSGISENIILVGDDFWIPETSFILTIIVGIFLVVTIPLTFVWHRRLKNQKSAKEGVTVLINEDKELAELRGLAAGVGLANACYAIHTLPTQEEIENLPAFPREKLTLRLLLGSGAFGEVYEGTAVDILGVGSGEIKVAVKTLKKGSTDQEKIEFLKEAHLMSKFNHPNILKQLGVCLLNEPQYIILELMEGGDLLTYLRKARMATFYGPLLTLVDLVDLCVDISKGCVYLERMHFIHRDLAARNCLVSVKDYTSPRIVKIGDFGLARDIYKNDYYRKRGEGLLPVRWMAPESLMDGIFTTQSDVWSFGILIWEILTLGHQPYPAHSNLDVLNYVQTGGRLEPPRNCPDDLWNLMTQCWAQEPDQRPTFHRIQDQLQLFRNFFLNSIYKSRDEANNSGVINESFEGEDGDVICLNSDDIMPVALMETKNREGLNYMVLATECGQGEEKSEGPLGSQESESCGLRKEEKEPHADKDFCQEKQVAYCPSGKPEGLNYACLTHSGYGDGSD
Sequence of Epidermal growth factor receptor (P00533 25-1210 L858R limits assumed): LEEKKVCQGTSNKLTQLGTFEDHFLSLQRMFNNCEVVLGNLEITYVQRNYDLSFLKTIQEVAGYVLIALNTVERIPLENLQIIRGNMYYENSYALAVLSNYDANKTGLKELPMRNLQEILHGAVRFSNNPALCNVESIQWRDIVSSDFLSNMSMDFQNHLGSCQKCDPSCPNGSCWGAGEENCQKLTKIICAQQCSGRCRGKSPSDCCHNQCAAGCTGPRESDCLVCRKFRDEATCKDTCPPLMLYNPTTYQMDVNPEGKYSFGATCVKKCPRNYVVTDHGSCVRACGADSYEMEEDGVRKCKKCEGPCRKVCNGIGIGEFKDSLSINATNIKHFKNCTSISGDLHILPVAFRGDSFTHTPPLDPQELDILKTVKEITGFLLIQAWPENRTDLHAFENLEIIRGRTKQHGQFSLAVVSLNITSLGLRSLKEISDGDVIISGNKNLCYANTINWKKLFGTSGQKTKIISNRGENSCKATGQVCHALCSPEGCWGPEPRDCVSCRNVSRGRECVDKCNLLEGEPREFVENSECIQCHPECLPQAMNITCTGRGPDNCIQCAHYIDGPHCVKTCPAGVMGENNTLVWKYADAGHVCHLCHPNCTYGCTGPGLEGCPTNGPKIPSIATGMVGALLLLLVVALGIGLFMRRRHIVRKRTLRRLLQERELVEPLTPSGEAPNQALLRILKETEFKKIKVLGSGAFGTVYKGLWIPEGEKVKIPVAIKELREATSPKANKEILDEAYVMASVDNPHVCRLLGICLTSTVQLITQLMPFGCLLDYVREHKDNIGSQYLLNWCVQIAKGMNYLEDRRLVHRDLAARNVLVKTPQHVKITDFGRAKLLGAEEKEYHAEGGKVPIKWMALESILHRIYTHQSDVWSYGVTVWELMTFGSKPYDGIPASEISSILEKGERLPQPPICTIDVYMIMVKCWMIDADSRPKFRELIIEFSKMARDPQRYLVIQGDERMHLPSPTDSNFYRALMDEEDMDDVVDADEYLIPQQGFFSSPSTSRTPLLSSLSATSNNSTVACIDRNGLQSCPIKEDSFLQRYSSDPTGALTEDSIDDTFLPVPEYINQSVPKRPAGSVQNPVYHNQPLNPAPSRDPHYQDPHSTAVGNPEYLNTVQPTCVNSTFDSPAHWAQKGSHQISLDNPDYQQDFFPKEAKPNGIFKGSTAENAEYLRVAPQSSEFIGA
Sequence of Insulin receptor (Homo sapiens) (P06213 28-758 limits assumed): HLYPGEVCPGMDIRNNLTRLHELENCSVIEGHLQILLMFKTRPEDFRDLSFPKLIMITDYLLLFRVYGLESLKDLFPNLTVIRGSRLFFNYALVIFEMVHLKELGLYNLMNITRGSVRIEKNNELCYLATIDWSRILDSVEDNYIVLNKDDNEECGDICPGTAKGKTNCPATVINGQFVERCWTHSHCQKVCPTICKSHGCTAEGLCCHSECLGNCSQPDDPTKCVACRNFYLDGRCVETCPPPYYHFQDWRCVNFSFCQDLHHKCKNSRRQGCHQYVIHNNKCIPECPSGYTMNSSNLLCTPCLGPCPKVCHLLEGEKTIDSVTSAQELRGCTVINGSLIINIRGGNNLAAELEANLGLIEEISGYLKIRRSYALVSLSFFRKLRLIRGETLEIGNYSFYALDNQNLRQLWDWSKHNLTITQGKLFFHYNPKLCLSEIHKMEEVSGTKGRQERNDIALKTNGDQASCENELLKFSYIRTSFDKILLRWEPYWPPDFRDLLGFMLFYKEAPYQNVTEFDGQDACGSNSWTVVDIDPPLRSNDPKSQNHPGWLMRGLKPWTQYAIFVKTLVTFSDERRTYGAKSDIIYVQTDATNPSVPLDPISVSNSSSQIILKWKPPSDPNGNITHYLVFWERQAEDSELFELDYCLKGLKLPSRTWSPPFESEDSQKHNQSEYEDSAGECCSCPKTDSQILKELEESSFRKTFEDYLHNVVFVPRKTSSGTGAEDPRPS
Sequence of Insulin receptor (Homo sapiens) (P06213 763-1382 limits assumed): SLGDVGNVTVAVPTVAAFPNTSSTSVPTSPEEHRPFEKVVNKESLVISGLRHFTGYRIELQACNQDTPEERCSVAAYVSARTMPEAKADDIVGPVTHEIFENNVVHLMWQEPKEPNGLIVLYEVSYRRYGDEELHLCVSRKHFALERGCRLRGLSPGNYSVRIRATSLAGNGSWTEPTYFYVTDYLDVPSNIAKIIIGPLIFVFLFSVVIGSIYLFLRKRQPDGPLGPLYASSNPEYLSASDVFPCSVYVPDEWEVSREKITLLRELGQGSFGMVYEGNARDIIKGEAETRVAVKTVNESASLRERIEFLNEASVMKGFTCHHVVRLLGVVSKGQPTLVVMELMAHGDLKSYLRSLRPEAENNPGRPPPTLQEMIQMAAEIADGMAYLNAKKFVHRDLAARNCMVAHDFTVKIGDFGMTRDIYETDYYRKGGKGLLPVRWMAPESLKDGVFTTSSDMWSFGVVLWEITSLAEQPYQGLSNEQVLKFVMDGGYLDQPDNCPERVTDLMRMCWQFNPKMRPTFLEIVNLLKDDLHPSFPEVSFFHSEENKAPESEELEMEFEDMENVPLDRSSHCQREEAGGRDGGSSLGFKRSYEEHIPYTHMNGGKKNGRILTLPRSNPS

GI50 (NCI-H3122 [2])	SMILES	also measured
66 nM	COc1ccc(C(=O)CCC(=O)N2CCN(C3CCN(c4ccc(Nc5ncc(Cl)c(Nc6ccccc6P(C)(C)=O)n5)c(OC)c4)CC3)CC2)cc1	GI50 (NCI-H3122 [1]): 111 nM
23 nM	Cc1cc(Nc2ncc(Cl)c(Nc3ccccc3S(=O)(=O)C(C)C)n2)c(OC(C)C)cc1C1CCNCC1 [CERITINIB]	–
> 5000 nM	CCc1cc2c(cc1N1CCC(N3CCN(C(=O)CCC(=O)c4ccc(OC)cc4)CC3)CC1)C(C)(C)c1[nH]c3cc(C#N)ccc3c1C2=O	–
88 nM	CCc1cc2c(cc1N1CCC(N3CCN(C(=O)/C=C/C(=O)c4ccc(OC)cc4)CC3)CC1)C(C)(C)c1[nH]c3cc(C#N)ccc3c1C2=O	–
23 nM	CCc1cc2c(cc1N1CCC(N3CCOCC3)CC1)C(C)(C)c1[nH]c3cc(C#N)ccc3c1C2=O [ALECTINIB]	–
209 nM	COc1ccc(C(=O)/C=C/C(=O)N2CCC(c3cc(OC(C)C)c(Nc4ncc(Cl)c(Nc5ccccc5S(=O)(=O)C(C)C)n4)cc3C)CC2)cc1	–
35 nM	COc1cc(N2CCC(N3CCN(C)CC3)CC2)ccc1Nc1ncc(Cl)c(Nc2ccccc2P(C)(C)=O)n1 [BRIGATINIB]	GI50 (NCI-H3122 [1]): 43 nM
747 nM	COc1ccc(C(=O)CCC(=O)N2CCC(c3cc(OC(C)C)c(Nc4ncc(Cl)c(Nc5ccccc5S(=O)(=O)C(C)C)n4)cc3C)CC2)cc1	–
1100 nM	COc1ccc(C(=O)CCC(=O)N2CCC(n3cc(-c4cnc(N)c(O[C@H](C)c5c(Cl)ccc(F)c5Cl)c4)cn3)CC2)cc1	–
–	CC(C)C[C@H](NC(=O)[C@H](Cc1ccccc1)NC(=O)c1cnccn1)B(O)O	fold change (FC) (NCI-H3122 [3]): 1
2 nM	COc1ccc(C(=O)/C=C/C(=O)N2CCN(C3CCN(c4ccc(Nc5ncc(Cl)c(Nc6ccccc6P(C)(C)=O)n5)c(OC)c4)CC3)CC2)cc1	IC50 [4]: 185 nM; IC50 [5]: 97.1 nM; inhibition [6]: 73%; inhibition [7]: 48%; inhibition [8]: 44%; inhibition [9]: 82%; GI50 (NCI-H3122 [1]): 2 nM
56 nM	COc1ccc(C(=O)/C=C/C(=O)N2CCC(n3cc(-c4cnc(N)c(O[C@H](C)c5c(Cl)ccc(F)c5Cl)c4)cn3)CC2)cc1	–
